The target of experiment [1] is T1, Dihydrofolate reductase (Rattus norvegicus, UniProt Q920D2).
T1 sequence (Q920D2 whole entry): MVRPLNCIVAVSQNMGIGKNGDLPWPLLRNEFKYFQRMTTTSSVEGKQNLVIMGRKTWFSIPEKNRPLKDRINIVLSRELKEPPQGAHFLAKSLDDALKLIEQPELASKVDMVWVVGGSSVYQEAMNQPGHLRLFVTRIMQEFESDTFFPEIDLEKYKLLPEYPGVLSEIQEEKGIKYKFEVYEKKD
Description: Inhibitory activity against rat liver dihydrofolate reductase

Experiment [2] addresses T2, Dihydrofolate reductase (Pneumocystis carinii, UniProt P16184).
T2 sequence (P16184 whole entry): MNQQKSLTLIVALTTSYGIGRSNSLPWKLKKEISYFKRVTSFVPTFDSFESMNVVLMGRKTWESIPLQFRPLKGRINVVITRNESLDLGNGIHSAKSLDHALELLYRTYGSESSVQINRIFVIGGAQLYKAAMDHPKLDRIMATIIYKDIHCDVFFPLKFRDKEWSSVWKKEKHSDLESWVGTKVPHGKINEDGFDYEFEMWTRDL
Description: Inhibitory activity against Pneumocystis carinii dihydrofolate reductase

Another experiment concerns Toxoplasma gondii. Briefly: Inhibition of Toxoplasma gondii cell growth. It counts as functional, organism-based.
For experiment [3], the target named is T3, Bifunctional dihydrofolate reductase-thymidylate synthase (Toxoplasma gondii, UniProt Q07422).
T3 sequence (Q07422 whole entry): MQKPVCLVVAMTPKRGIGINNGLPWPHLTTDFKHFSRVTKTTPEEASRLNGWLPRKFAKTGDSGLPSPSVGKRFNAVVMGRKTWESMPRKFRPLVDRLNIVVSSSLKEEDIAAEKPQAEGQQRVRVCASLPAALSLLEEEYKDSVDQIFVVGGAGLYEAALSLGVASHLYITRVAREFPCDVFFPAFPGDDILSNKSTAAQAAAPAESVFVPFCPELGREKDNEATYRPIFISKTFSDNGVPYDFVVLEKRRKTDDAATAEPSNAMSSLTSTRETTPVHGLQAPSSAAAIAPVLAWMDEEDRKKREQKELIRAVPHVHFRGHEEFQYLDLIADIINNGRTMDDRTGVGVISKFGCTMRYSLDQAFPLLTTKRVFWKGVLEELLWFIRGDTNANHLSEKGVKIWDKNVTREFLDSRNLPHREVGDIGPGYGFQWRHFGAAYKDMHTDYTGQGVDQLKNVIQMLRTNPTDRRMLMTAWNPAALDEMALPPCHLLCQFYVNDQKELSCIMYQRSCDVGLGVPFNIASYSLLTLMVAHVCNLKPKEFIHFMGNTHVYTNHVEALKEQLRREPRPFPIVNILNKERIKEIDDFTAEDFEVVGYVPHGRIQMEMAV
Description: Inhibitory activity against Toxoplasma gondii dihydrofolate reductase

Broadly, the IC50 is the concentration at which inhibition is half-maximal. A lower IC50 goes with greater potency.

Take `COc1cc(OC)cc(N(C)Cc2cnc3nc(N)nc(N)c3c2C)c1`: the IC50 at Dihydrofolate reductase [1] amounted to 13 nM; against Dihydrofolate reductase [2], 50 nM; with Toxoplasma gondii it was 10 nM; in experiment [3], 4 nM.

Regarding `Nc1nc(N)c2nc(CNc3ccc(Cl)cc3)cnc2n1`, the IC50 on Dihydrofolate reductase [1] turned out to be 300 nM; on Dihydrofolate reductase [2], 1500 nM; in the experiment with Toxoplasma gondii, 700 nM; in experiment [3] it was 590 nM.

As to `COc1ccc(C(F)(F)F)cc1N(C)Cc1cnc2nc(N)nc(N)c2c1C`, the IC50 on Dihydrofolate reductase [1] amounted to 230 nM; against Dihydrofolate reductase [2], 93 nM; with Toxoplasma gondii, 200 nM; in experiment [3], 38 nM.

Turning to `COc1ccc(SCc2cnc3nc(N)nc(N)c3n2)cc1`, the IC50 amounted to 10200 nM against Dihydrofolate reductase [1], 17200 nM against Dihydrofolate reductase [2], 3000 nM with Toxoplasma gondii and 14000 nM in experiment [3].

As to `Nc1nc(N)c2cc(CNc3cccc4ccccc34)ccc2n1`, the IC50 at Dihydrofolate reductase [1] came to 55 nM; against Dihydrofolate reductase [2], 210 nM; with Toxoplasma gondii it was 60 nM; in experiment [3], 27 nM.

On to `Cc1c(CN(C)c2cccc3c2CCCC3)cnc2nc(N)nc(N)c12`, for which the IC50 against Dihydrofolate reductase [1] was 140 nM; against Dihydrofolate reductase [2] it was 150 nM; with Toxoplasma gondii it was 20 nM; in experiment [3], 16 nM.

Take `Cc1cc(Cl)ccc1NCc1ccc2nc(N)nc(N)c2c1`: the IC50 on Dihydrofolate reductase [1] was 23 nM; on Dihydrofolate reductase [2] it was 330 nM; in the experiment with Toxoplasma gondii, 200 nM; in experiment [3], 33 nM.

Take `COc1ccc(SCc2cnc3nc(N)nc(N)c3c2C)cc1OC`: the IC50 against Dihydrofolate reductase [1] worked out at 180 nM; at Dihydrofolate reductase [2], 150 nM; in the experiment on Toxoplasma gondii it was 5000 nM; in experiment [3] it was 30 nM.

As to `COc1ccc(SCc2cnc3nc(N)nc(N)c3n2)cc1OC`, the concentration for half-maximal inhibition (IC50) against Dihydrofolate reductase [1] was determined as 36300 nM; against Dihydrofolate reductase [2], 58200 nM; in the experiment on Toxoplasma gondii, 5000 nM; in experiment [3] it was 23200 nM.

On to `Cc1c(CCc2cccc3ccccc23)cnc2nc(N)nc(N)c12`, for which the IC50 against Dihydrofolate reductase [1] is 135 nM; at Dihydrofolate reductase [2] it was 64 nM; in the experiment on Toxoplasma gondii it was 100 nM; in experiment [3] it was 26 nM.

For the compound `Cc1ccc(C)c(NCc2cnc3nc(N)nc(N)c3c2C)c1`, the IC50 amounted to 120 nM at Dihydrofolate reductase [1], 30 nM at Dihydrofolate reductase [2], 10 nM in the experiment on Toxoplasma gondii and 16 nM in experiment [3].

For `COc1ccc(OC)c(NCc2cnc3nc(N)nc(N)c3n2)c1`, the IC50 against Dihydrofolate reductase [1] worked out at 22900 nM; against Dihydrofolate reductase [2], 6200 nM; in the experiment with Toxoplasma gondii it was 5000 nM; in experiment [3], 6900 nM.

On to `Cc1c(CNc2ccc(Cl)cc2)cnc2nc(N)nc(N)c12`, for which the IC50 on Dihydrofolate reductase [1] was 72 nM; against Dihydrofolate reductase [2] it was 110 nM; with Toxoplasma gondii, 150 nM; in experiment [3] it was 32 nM.

In the case of `COc1cc(NCc2cnc3nc(N)nc(N)c3n2)cc(OC)c1OC`, the IC50 against Dihydrofolate reductase [1] was 1900 nM; at Dihydrofolate reductase [2], 7000 nM; with Toxoplasma gondii it was 11000 nM; in experiment [3] it was 1000 nM.

For `COc1cc(NCc2cnc3nc(N)nc(N)c3n2)cc(C(F)(F)F)c1`, the IC50 against Dihydrofolate reductase [1] turned out to be 1900 nM; on Dihydrofolate reductase [2] it was 680 nM; in the experiment on Toxoplasma gondii it was 1000 nM; in experiment [3], 890 nM.

With `Nc1nc(N)c2cc(CNc3ccc(Cl)cc3)cnc2n1`, the IC50 at Dihydrofolate reductase [1] is 720 nM; on Dihydrofolate reductase [2], 970 nM; with Toxoplasma gondii, 4000 nM; in experiment [3], 300 nM.

Consider `COc1ccc(C(F)(F)F)cc1NCc1cnc2nc(N)nc(N)c2n1`, for which the IC50 is 21000 nM on Dihydrofolate reductase [1], 21000 nM against Dihydrofolate reductase [2], 2000 nM in the experiment with Toxoplasma gondii and 10600 nM in experiment [3].

Take `COc1ccc(C)c(NCc2cnc3nc(N)nc(N)c3n2)c1`: the IC50 at Dihydrofolate reductase [1] is above 3000 nM; against Dihydrofolate reductase [2], above 3000 nM; in the experiment with Toxoplasma gondii, 1000 nM; in experiment [3] it was 440 nM.

As to `Cc1c(CSc2cccc3ccccc23)cnc2nc(N)nc(N)c12`, the IC50 is 550 nM against Dihydrofolate reductase [1], 290 nM against Dihydrofolate reductase [2], 40 nM with Toxoplasma gondii and 30 nM in experiment [3].

Regarding `COc1cccc(C)c1NCc1cnc2nc(N)nc(N)c2n1`, the IC50 is 5700 nM against Dihydrofolate reductase [1], 15800 nM against Dihydrofolate reductase [2], 5000 nM with Toxoplasma gondii and 1850 nM in experiment [3].

Turning to `COc1ccc(N(C)Cc2cnc3nc(N)nc(N)c3c2C)c(OC)c1`, the IC50 was found to be 230 nM against Dihydrofolate reductase [1], 350 nM on Dihydrofolate reductase [2], 300 nM in the experiment with Toxoplasma gondii and 53 nM in experiment [3].

For the compound `COc1ccc(C)c(NCc2cnc3nc(N)nc(N)c3c2C)c1`, the IC50 stood at 150 nM at Dihydrofolate reductase [1], 38 nM against Dihydrofolate reductase [2], 30 nM in the experiment with Toxoplasma gondii and 23 nM in experiment [3].

Regarding `Nc1nc(N)c2nc(CSc3ccc(Cl)cc3)cnc2n1`, the IC50 on Dihydrofolate reductase [1] was 14300 nM; on Dihydrofolate reductase [2], 42100 nM; in the experiment with Toxoplasma gondii it was above 10000 nM; in experiment [3], 16800 nM.

Consider `CCOc1ccc(OCC)c(N(C)Cc2cnc3nc(N)nc(N)c3c2C)c1`, for which the IC50 came out at 530 nM against Dihydrofolate reductase [1], 167 nM on Dihydrofolate reductase [2], 60 nM in the experiment with Toxoplasma gondii and 29 nM in experiment [3].

For the compound `Cc1c(CNc2cccc3ccccc23)cnc2nc(N)nc(N)c12`, the IC50 worked out at 110 nM at Dihydrofolate reductase [1], 220 nM against Dihydrofolate reductase [2], 12 nM in the experiment with Toxoplasma gondii and 240 nM in experiment [3].

For `COc1cc(NCc2cnc3nc(N)nc(N)c3c2C)cc(C(F)(F)F)c1`, the IC50 against Dihydrofolate reductase [1] turned out to be 17 nM; at Dihydrofolate reductase [2], 20 nM; in the experiment with Toxoplasma gondii, 200 nM; in experiment [3], 18 nM.

Regarding `Cc1c(CSc2cccc(Cl)c2)cnc2nc(N)nc(N)c12`, the IC50 at Dihydrofolate reductase [1] was found to be 190 nM; on Dihydrofolate reductase [2] it was 68 nM; with Toxoplasma gondii it was 150 nM; in experiment [3], 90 nM.

As to `Cc1ccc(SCc2cnc3nc(N)nc(N)c3c2C)cc1`, the IC50 on Dihydrofolate reductase [1] worked out at 500 nM; against Dihydrofolate reductase [2] it was 530 nM; in the experiment with Toxoplasma gondii it was 300 nM; in experiment [3], 57 nM.

Consider `COc1cccc(SCc2cnc3nc(N)nc(N)c3c2C)c1`, for which the 50% inhibitory concentration (IC50) against Dihydrofolate reductase [1] amounted to 600 nM; against Dihydrofolate reductase [2], 340 nM; with Toxoplasma gondii it was 200 nM; in experiment [3] it was 110 nM.

Take `CCOc1ccc(OCC)c(NCc2cnc3nc(N)nc(N)c3c2C)c1`: the IC50 at Dihydrofolate reductase [1] is 370 nM; on Dihydrofolate reductase [2], 125 nM; in the experiment with Toxoplasma gondii, 60 nM; in experiment [3] it was 22 nM.

Take `COc1ccc(C)cc1NCc1cnc2nc(N)nc(N)c2c1C`: the IC50 worked out at 160 nM against Dihydrofolate reductase [1], 68 nM against Dihydrofolate reductase [2], 50 nM in the experiment on Toxoplasma gondii and 15 nM in experiment [3].

Regarding `COc1ccc(NCc2cnc3nc(N)nc(N)c3c2C)c(OC)c1`, the IC50 on Dihydrofolate reductase [1] worked out at 61 nM; against Dihydrofolate reductase [2], 91 nM; with Toxoplasma gondii, 200 nM; in experiment [3], 10 nM.

In the case of `COc1cccc(C)c1NCc1cnc2nc(N)nc(N)c2c1C`, the IC50 against Dihydrofolate reductase [1] is 320 nM; on Dihydrofolate reductase [2] it was 1000 nM; in the experiment on Toxoplasma gondii, 300 nM; in experiment [3] it was 100 nM.

For the compound `COc1ccc(C(F)(F)F)cc1NCc1cnc2nc(N)nc(N)c2c1C`, the IC50 against Dihydrofolate reductase [1] amounted to 20 nM; on Dihydrofolate reductase [2], 44 nM; in the experiment on Toxoplasma gondii it was 20 nM; in experiment [3], 22 nM.

For `COc1ccc(OC)c(N(C)Cc2cnc3nc(N)nc(N)c3c2C)c1`, the IC50 against Dihydrofolate reductase [1] stood at 460 nM; against Dihydrofolate reductase [2], 700 nM; in the experiment with Toxoplasma gondii it was 200 nM; in experiment [3], 28 nM.

In the case of `Cc1c(CNc2cccc3c2CCCC3)cnc2nc(N)nc(N)c12`, the IC50 is 130 nM against Dihydrofolate reductase [1], 100 nM at Dihydrofolate reductase [2], 60 nM with Toxoplasma gondii and 26 nM in experiment [3].

`COc1ccc(NCc2cnc3nc(N)nc(N)c3c2C)cc1OC`: the IC50 was determined as 6.5 nM at Dihydrofolate reductase [1], 51 nM against Dihydrofolate reductase [2], 600 nM in the experiment on Toxoplasma gondii and 2.7 nM in experiment [3].

In the case of `Cc1cccc(SCc2cnc3nc(N)nc(N)c3n2)c1`, the IC50 came out at 8480 nM on Dihydrofolate reductase [1], 21200 nM on Dihydrofolate reductase [2], 4000 nM with Toxoplasma gondii and 1800 nM in experiment [3].

Take `COc1ccc(OC)c(CCc2cnc3nc(N)nc(N)c3n2)c1`: the IC50 came to 23200 nM against Dihydrofolate reductase [1], 11100 nM at Dihydrofolate reductase [2], 5000 nM with Toxoplasma gondii and 5400 nM in experiment [3].

As to `Cc1c(CSc2ccccc2)cnc2nc(N)nc(N)c12`, the IC50 worked out at 430 nM at Dihydrofolate reductase [1], 440 nM against Dihydrofolate reductase [2], 200 nM with Toxoplasma gondii and 34 nM in experiment [3].

On to `Nc1nc(N)c2nc(CSc3cccc(Cl)c3)cnc2n1`, for which the IC50 at Dihydrofolate reductase [1] is 26600 nM; on Dihydrofolate reductase [2], 42200 nM; in the experiment on Toxoplasma gondii, above 10000 nM; in experiment [3], 5700 nM.
